Assay results as given in PubChem BioAssay (NCI).
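How tested: cells in 96-well plates exposed to compound for 48 hours at five concentrations. Here, GI50 denotes the concentration required for 50% inhibition of growth. TGI: concentration producing complete growth inhibition.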

Columns and labels:
Assay in all cases: NCI tumour cell line growth inhibition, 48 h
[1] = test system: COLO 205 colon
[2] = test system: SK-MEL-5 melanoma
[3] = test system: UO-31 renal
[4] = test system: SF-539 CNS
[5] = test system: UACC-62 melanoma
[6] = test system: HOP-62 NSCLC
[7] = test system: OVCAR-4 ovarian
[8] = test system: SK-MEL-28 melanoma
[9] = test system: PC-3 prostate
[10] = test system: NCI/ADR-RES ovarian

| SMILES | TGI [1] | TGI [2] | TGI [3] | TGI [4] | TGI [5] | TGI [6] | TGI [7] | TGI [8] | GI50 [1] | GI50 [2] | GI50 [3] | GI50 [4] | GI50 [5] | GI50 [6] | GI50 [7] | GI50 [8] | GI50 [9] | TGI [9] | GI50 [10] | TGI [10] |
| --- | --- | --- | --- | --- | --- | --- | --- | --- | --- | --- | --- | --- | --- | --- | --- | --- | --- | --- | --- | --- |
| CC1(C)Cc2nnsc2C2=C1C(=O)CCS2 | > 100 µM | > 100 µM | > 100 µM | > 100 µM | > 100 µM | > 100 µM | > 100 µM | > 100 µM | – | – | – | – | – | – | – | – | – | – | – | – |
| C[CH2][Ge]([CH2]C)([CH2]C)[O]C(=O)C([O][Ge]([CH2]C)([CH2]C)[CH2]C)c1ccccc1 (stereo not drawn) | 55.7 µM | 26.8 µM | 28.7 µM | 40.5 µM | 30.7 µM | 42.8 µM | > 100 µM | > 100 µM | 22.1 µM | 11.8 µM | 13 µM | 17.1 µM | 14.5 µM | 19.5 µM | 6.36 µM | 24.6 µM | – | – | – | – |
| CN(C)CCC(/C=C/c1ccccc1)=N\Nc1ccc(Cl)cc1 | 16.5 µM | 31.5 µM | 4.24 µM | 5.32 µM | 4.95 µM | 4.07 µM | 21.7 µM | 27.2 µM | – | – | – | – | – | – | – | – | – | – | – | – |
| Cc1cc(Cl)ccc1N1C(=O)C(=O)C(c2nc3ccccc3o2)C(=O)C1=O | > 100 µM | > 100 µM | > 100 µM | > 100 µM | > 100 µM | > 100 µM | > 100 µM | > 100 µM | – | – | – | – | – | – | – | – | – | – | – | – |
| Cc1cc(Cl)cc2c1NC(=O)C2(O)CC(=O)c1ccc(F)cc1 (stereo not drawn) | > 100 µM | – | > 100 µM | > 100 µM | 42 µM | > 100 µM | 98.1 µM | > 100 µM | – | – | – | – | – | – | – | – | – | – | – | – |
| CN(C)CCC(=O)N1CCc2c([nH]c3ccccc23)C1c1cccnc1 (stereo not drawn) | – | > 100 µM | > 100 µM | > 100 µM | > 100 µM | > 100 µM | > 100 µM | > 100 µM | – | – | – | – | – | – | – | – | – | – | – | – |
| CCCC(=O)O[C@]1(C)CC[C@@H]2[C@H]3[C@@H]1[C@@H]1C/C(C)=C\CC[C@](C)(OC(=O)[C@@H]2C)[C@H]3O1 | > 100 µM | 33.1 µM | 65.6 µM | > 100 µM | > 100 µM | > 100 µM | > 100 µM | > 100 µM | 43.2 µM | 13.4 µM | 23.6 µM | > 100 µM | 24.4 µM | 60.3 µM | 52.9 µM | 78.5 µM | 16200 nM | 41.3 µM | – | – |
| Cc1nc2ccccc2c(/C=C/c2ccccc2)c1C(=O)/C=C/c1ccc(Cl)cc1 | – | 3.04 µM | 2.55 µM | – | 3.25 µM | – | > 100 µM | – | – | 1.62 µM | 1.28 µM | – | 1.5 µM | – | 2.36 µM | – | – | – | 1810 nM | 4.88 µM |
| O=C1C(CO)=C[C@@H](O)[C@H]2O[C@@H]12 | > 100 µM | > 100 µM | > 100 µM | – | > 100 µM | > 100 µM | 53.4 µM | > 100 µM | – | – | – | – | – | – | – | – | – | – | – | > 100 µM |
| COc1ccc(C(=O)C/C(=N/NC(N)=S)C(=O)Nc2ccccc2)cc1 | > 100 µM | > 100 µM | > 100 µM | > 100 µM | > 100 µM | – | > 100 µM | > 100 µM | – | – | – | – | – | – | – | – | – | – | – | – |
| NC1=NCC(c2ccccn2)C1c1ccc(F)cc1 (stereo not drawn) | > 100 µM | > 100 µM | > 100 µM | > 100 µM | > 100 µM | > 100 µM | > 100 µM | > 100 µM | – | – | – | – | – | – | – | – | – | – | – | – |
| CCP(C)(C)=O | > 100 µM | > 100 µM | – | > 100 µM | > 100 µM | > 100 µM | > 100 µM | > 100 µM | – | – | – | – | – | – | – | – | – | – | – | – |
| N#CSCC1CC(O)(c2ccccc2)CC(c2ccc(Cl)cc2)O1 (stereo not drawn) | 3.92 µM | 14.9 µM | 4.84 µM | 3.32 µM | 10.9 µM | 14.9 µM | 15.3 µM | 4.57 µM | 1.91 µM | 0.559 µM | 1.61 µM | 1.54 µM | 3.31 µM | 4.46 µM | 4.44 µM | 1.84 µM | 2470 nM | 7.49 µM | – | – |
| NC(=NCCO)c1ccc(N2CCCN(c3ccc(C(N)=NCCO)cc3)CC2)cc1 | > 100 µM | – | – | – | > 100 µM | > 100 µM | > 100 µM | > 100 µM | > 100 µM | – | – | – | > 100 µM | 91.7 µM | > 100 µM | > 100 µM | – | – | > 100000 nM | > 100 µM |
| Cc1cccc(C)c1NC(=O)CCCC(=O)C(C#N)c1ccc(Cl)cc1 (stereo not drawn) | > 100 µM | > 100 µM | > 100 µM | > 100 µM | > 100 µM | > 100 µM | > 100 µM | > 100 µM | – | – | – | – | – | – | – | – | – | – | – | – |
| COC1C(O)CC(OC2CC(OC3CC(O[C@@H]4C(=O)c5c(cc6cc(OC7CC(OC8CC(O)C(O)C(C)O8)C(O)C(C)O7)c(C)c(O)c6c5O)C[C@H]4[C@H](OC)C(=O)[C@@H](O)[C@@H](C)O)OC(C)C3O)OC(C)C2O)OC1C (stereo partly drawn) | 0.0921 µM | 0.032 µM | 0.15 µM | 0.0312 µM | 0.265 µM | 3.87 µM | > 100 µM | 0.0224 µM | – | – | – | – | – | – | – | – | – | – | – | – |
| COc1ccc(C2N3CCCCC3[C@@H]3c4[nH]c5ccccc5c4CCN23)c(OC)c1 (stereo partly drawn) | 43.2 µM | 32.7 µM | 74.1 µM | 35.2 µM | 31 µM | > 100 µM | 56.5 µM | 36.9 µM | – | – | – | – | – | – | – | – | – | – | – | – |
| COC(=O)[C@@H]1[C@H](O)[C@H](C)[C@H](O)[C@H](C)/C=C\C=C(C)C(=O)Nc2c(C)c(OC(C)=O)c3c(c2O)C(=O)C(C)=C2OCOC(=C23)C(C)=C[C@@](C)(O)[C@H](O)[C@@H](C)[C@H]1OC(C)=O | – | > 100 µM | > 100 µM | – | – | > 100 µM | > 100 µM | > 100 µM | – | – | – | – | – | – | – | – | – | > 100 µM | – | – |
| O=C([CH-]C(=O)c1ccccc1)c1ccccc1.[CH3-].[CH3-].[CH3-].[Sn+4] | 35.8 µM | 35.1 µM | 40.4 µM | > 100 µM | 65.8 µM | 94.9 µM | 56.1 µM | 47.1 µM | 17.8 µM | 8.21 µM | 12 µM | 21.7 µM | 12.2 µM | 22.9 µM | 8.81 µM | 15.6 µM | – | – | – | – |
| Cc1cccc(Cl)c1NC(=O)c1cccc([N+](=O)[O-])c1O | > 100 µM | – | 59.5 µM | 85.2 µM | 93.9 µM | 54.4 µM | > 100 µM | > 100 µM | – | – | – | – | – | – | – | – | – | – | – | – |
| O=[N+]([O-])c1ccc2nc3ccscc-3c2c1 | 34.8 µM | 33.1 µM | > 100 µM | 50.4 µM | 65.6 µM | 69.4 µM | 31.4 µM | > 100 µM | – | – | – | – | – | – | – | – | – | – | – | – |
| Cc1ccccc1NC(=O)C(=O)CC(=O)C1CCOC1=O (stereo not drawn) | > 100 µM | > 100 µM | > 100 µM | > 100 µM | > 100 µM | > 100 µM | > 100 µM | > 100 µM | – | – | – | – | – | – | – | – | – | – | – | – |
| CCOC(=O)N1CCc2cc(OC)c(OC)cc2/C1=C/c1ccc(OC)c(OC)c1 | > 100 µM | 44.4 µM | > 100 µM | > 100 µM | > 100 µM | > 100 µM | – | > 100 µM | – | – | – | – | – | – | – | – | – | – | – | – |
| O=c1oc2c(cc1-c1ccccc1)C(O)Oc1ccccc1-2 (stereo not drawn) | 25.9 µM | 16.5 µM | 52.3 µM | 98 µM | 39.7 µM | 78.8 µM | 70.6 µM | 25 µM | 7.72 µM | 3.8 µM | 11.5 µM | 12.4 µM | 12.8 µM | 10.3 µM | 14.8 µM | 3.1 µM | – | – | – | – |
| CC(=O)Oc1ccccc1C(=O)NCCC[Se]C#N | 29.9 µM | – | – | 3.87 µM | – | 2.92 µM | 25.7 µM | 4.82 µM | 12.8 µM | – | – | 2.04 µM | – | 1.51 µM | 3.62 µM | 1.89 µM | 1930 nM | 5.47 µM | – | – |
| CC(C)(C)c1cc(-c2c3nc(c(-c4cc(C(C)(C)C)cc(C(C)(C)C)c4)c4ccc([nH]4)c(-c4cc(C(C)(C)C)cc(C(C)(C)C)c4)c4nc(c(-c5cc(C(C)(C)C)cc(C(C)(C)C)c5)c5ccc2[nH]5)C=C4)C=C3)cc(C(C)(C)C)c1 | > 100 µM | > 100 µM | > 100 µM | > 100 µM | > 100 µM | > 100 µM | > 100 µM | > 100 µM | – | – | – | – | – | – | – | – | – | – | – | – |
| Cc1cccc2cc3cccc(C(=O)NCCN(C)C)c3nc12 | 1.75 µM | 0.825 µM | 0.552 µM | 1.61 µM | 0.386 µM | 0.502 µM | 2.32 µM | 2.21 µM | – | – | – | – | – | – | – | – | – | – | – | – |
| C/C(=C1/N=C(c2ccccc2)OC1=O)c1ccccc1 | > 100 µM | > 100 µM | – | > 100 µM | > 100 µM | > 100 µM | > 100 µM | > 100 µM | – | – | – | – | – | – | – | – | – | > 100 µM | – | – |
| C/C=C/C=C/CCCCCCCCCCCCC[C@]1(OC)C=CC(CC(=O)OC)OO1 (stereo partly drawn) | 36.1 µM | 31.1 µM | – | 35.3 µM | 29.8 µM | > 100 µM | 25.9 µM | 36.1 µM | 18.9 µM | – | – | – | – | 43.9 µM | 12.5 µM | – | – | – | – | – |
| COc1cc(/C=C2\NC(=S)C3Cc4c(OC)c(C)c(OC)c(OC)c4C2N3C)c(OC)c(C)c1OC (stereo not drawn) | 35.2 µM | 73.1 µM | > 100 µM | > 100 µM | > 100 µM | > 100 µM | > 100 µM | > 100 µM | – | – | – | – | – | – | – | – | – | – | – | – |
